# Measured values reported in patent publication US7741346B2, “Angiogenesis inhibitor” (Santen Pharmaceutical Co., Ltd., priority 2001, dated 2010).
row,Compound,melting point
1,"S=C1N(CCCc2ccncc2)CCN1CCc1ccccc1 [Compound No. 8-1, 1-Phenethyl-3-[3-(4-pyridyl)propyl]-2-imidazolidinethione]",99.5 to 104 °C
2,"O=C(NCCCc1ccncc1)N(CCC12CC3CC(CC(C3)C1)C2)CCC12CC3CC(CC(C3)C1)C2 [Compound No. 1-56, 1,1-Bis[2-(1-adamantyl)ethyl]-3-[3-(4-pyridyl)propyl]urea]",80 °C
3,"O=C(NCCCc1ccncc1)N(O)CCC12CC3CC(CC(C3)C1)C2 [Compound No. 12-1, 1-[2-(1-Adamantyl)ethyl]-1-hydroxy-3-[3-(4-pyridyl)propyl]urea]",101 to 102.59 °C
4,"CCCCCN(CCC12CC3CC(CC(C3)C1)C2)C(=O)NCC(C)(C)Cc1ccncc1 [Compound No. 1-135, 1-[2-(1-Adamantyl)ethyl]-3-[2,2-dimethyl-3-(4-pyridyl)propyl]-1-pentylurea]",82.5 to 84.9 °C
5,"CCCN(CCC12CC3CC(CC(C3)C1)C2)C(=O)NCCCc1ccncc1 [Compound No. 1-16, 1-[2-(1-Adamantyl)ethyl]-1-propyl-3-[3-(4-pyridyl)propyl]urea]",99 to 103 °C
6,"O=C(NCCCc1ccncc1)N(CCCc1ccccc1)C(c1ccccc1)c1ccccc1 [Compound No. 1-93, 1-Diphenylmethyl-1-(3-phenylpropyl)-3-[3-(4-pyridyl)propyl]urea]",123 to 124.8 °C
7,Cl.O=C(NCCCc1ccncc1)N(CCC12CC3CC(CC(C3)C1)C2)CCC12CC3CC(CC(C3)C1)C2,120 to 122.5 °C
8,"CCCCCN(CCC12CC3CC(CC(C3)C1)C2)C(=O)NCc1ccccn1 [Compound No. 1-72, 1-[2-(1-Adamantyl)ethyl]-1-pentyl-3-(2-pyridyl)methylurea]",87.5 to 92 °C
9,"CCCCCN(CCC12CC3CC(CC(C3)C1)C2)C(=O)NCc1ccncc1 [Compound No. 1-74, 1-[2-(1-Adamantyl)ethyl]-1-pentyl-3-(4-pyridyl)methylurea]",96.5 to 108 °C
10,"CCCCCN(CCC12CC3CC(CC(C3)C1)C2)C(=O)NCCCc1cc[n+](C)cc1.[I-] [Compound No. 4-1, 4-[3-[3-[2-(1-Adamantyl)ethyl]-3-pentylureido]propyl]-1-methylpyridinium iodide]",168 to 171 °C
11,"CN(CCN(CCC12CC3CC(CC(C3)C1)C2)C(=O)NCCCc1ccncc1)C(=O)CC(C)(C)C [Compound No. 10-6, 1-[2-(1-Adamantyl)ethyl]-1-[2-[N-(3,3-dimethylbutyryl)-N-methylamino]ethyl]-3-[3-(4-pyridyl)propyl]urea]",101.4 to 102.4 °C
12,CCCCCN(CCC12CC3CC(CC(C3)C1)C2)C(=O)CNCCc1ccncc1.Cl.Cl,133.7 to 137 °C
13,"CCCCCN(CCC12CC3CC(CC(C3)C1)C2)C(=O)NCCc1cccnc1 [Compound No. 1-76, 1-[2-(1-Adamantyl)ethyl]-1-pentyl-3-[2-(3-pyridyl)ethyl]urea]",112.5 to 114.5 °C
14,"CCCCCN(CCC12CC3CC(CC(C3)C1)C2)C(=O)NCCc1ccncc1 [Compound No. 1-80, 1-[2-(1-Adamantyl)ethyl]-1-pentyl-3-[2-(4-pyridyl)ethyl]urea]",107 to 118 °C
15,"CCCN(CC(=O)NC12CC3CC(CC(C3)C1)C2)C(=O)NCCCc1ccncc1 [Compound No. 1-132, 1-(1-Adamantyl)aminocarbonylmethyl-1-propyl-3-[3-(4-pyridyl)propyl]urea]",132 to 132.5 °C
16,"CCCCCN(CCC12CC3CC(CC(C3)C1)C2)C(=O)NCCC(=O)c1ccncc1 [Compound No. 31-1, 1-[2-(1-Adamantyl)ethyl]-3-[3-oxo-3-(4-pyridyl)propyl]-1-pentylurea]",103.5 to 104 °C
17,"CCCCCN(CCC12CC3CC(CC(C3)C1)C2)C(=O)NCCCc1cc[n+]([O-])cc1 [Compound No. 16-1, 4-[3-[3-[2-(1-Adamantyl)ethyl]-3-pentylureido]propyl]pyridine N-oxide]",97.8 to 127 °C
18,"CCCCCN(CCC12CC3CC(CC(C3)C1)C2)C(=O)NCC(Cc1ccncc1)Cc1ccncc1 [Compound No. 1-110, 1-[2-(1-Adamantyl)ethyl]-3-[2,2-bis(4-pyridylmethyl)ethyl]-1-pentylurea]",124 to 136 °C
19,"O=C(NCCCc1ccncc1)N(CC=Cc1ccccc1)CCC12CC3CC(CC(C3)C1)C2 [Compound No. 1-34, 1-[2-(1-Adamantyl)ethyl]-1-cinnamyl-3-[3-(4-pyridyl)propyl]urea]",130 to 134.5 °C
20,"O=C(NCCCc1ccncc1)N(CCC12CC3CC(CC(C3)C1)C2)Cc1ccccc1 [Compound No. 1-43, 1-[2-(1-Adamantyl)ethyl]-1-benzyl-3-[3-(4-pyridyl)propyl]urea]",130.5 to 135 °C
21,"O=C(NCCCc1ccncc1)N(CCCC12CC3CC(CC(C3)C1)C2)CC(F)(F)F [Compound No. 1-123, 1-[3-(1-Adamantyl)propyl]-3-[3-(4-pyridyl)propyl]-1-(2,2,2-trifluoroethyl)urea]",88.9 to 90 °C
22,"C=CCN(CCC12CC3CC(CC(C3)C1)C2)C(=O)NCCCc1ccncc1 [Compound No. 1-23, 1-[2-(1-Adamantyl)ethyl]-1-allyl-3-[3-(4-pyridyl)propyl]urea]",99 to 102 °C

row,Compound,melting point
1,"O=C(N(CCCc1ccncc1)Cc1ccccc1)N(CCCc1ccccc1)C1CCCCC1 [Compound No. 1-60, 1-Cyclohexyl(phenyl)methyl-1-(3-phenylpropyl)-3-[3-(4-pyridyl)propyl]urea]",107 to 112 °C
2,"CCCCCN(CCC12CC3CC(CC(C3)C1)C2)C(=O)NCCC(C)c1ccncc1 (centres unmarked) [Compound No. 1-104, 1-[2-(1-Adamantyl)ethyl]-1-pentyl-3-[3-(4-pyridyl)butyl]urea]",93 to 98 °C
3,"O=C(NCCCc1ccncc1)N(CCC12CC3CC(CC(C3)C1)C2)C1CCCC1 [Compound No. 1-70, 1-[2-(1-Adamantyl)ethyl]-1-cyclopentyl-3-[3-(4-pyridyl)propyl]urea]",135.5 to 137.5 °C
4,"CCCCCN(CCC12CC3CC(CC(C3)C1)C2)C(=O)NCc1cccnc1 [Compound No. 1-73, 1-[2-(1-Adamantyl)ethyl]-1-pentyl-3-(3-pyridyl)methylurea]",88.5 to 101.5 °C
5,"CCCCCN(CCc1ccccc1)C(=O)NCC(C)Cc1ccncc1 (centres unmarked) [Compound No. 1-115, 3-[2-Methyl-3-(4-pyridyl)propyl]-1-pentyl-1-phenethylurea]",49 to 50 °C
6,Cl.O=C(NCc1ccncc1)N(CCC1CCCCC1)Cc1cccs1,161.8 to 164.4 °C
7,"O=C(NCCCc1ccncc1)N(CCC12CC3CC(CC(C3)C1)C2)Cc1cccs1 [Compound No. 1-27, 1-[2-(1-Adamantyl)ethyl]-3-[3-(4-pyridyl)propyl]-1-(2-thienyl)methylurea]",142.5 to 144.5 °C
8,Cl.Cl.NN(CCC12CC3CC(CC(C3)C1)C2)C(=O)NCCCc1ccncc1,~ 100 °C
9,"CN(CCN(CCC12CC3CC(CC(C3)C1)C2)C(=O)NCCCc1ccncc1)C(=O)OC(C)(C)C(Cl)(Cl)Cl [Compound No. 10-10, 1-[2-(1-Adamantyl)ethyl]-1-[2-[N-(1,1-dimethyl-2,2,2-trichloroethoxycarbonyl)-N-methylamino}ethyl]-3-[3-(4-pyridyl)propyl]urea]",47 to 52 °C
10,"CCCCCN(CCC12CC3CC(CC(C3)C1)C2)C(=O)NCCCc1cccnc1 [Compound No. 1-84, 1-[2-(1-Adamantyl)ethyl]-1-pentyl-3-[3-(3-pyridyl)propyl]urea]",99.9 to 105.2 °C
11,"O=C(NCCCc1ccncc1)N(CCC12CC3CC(CC(C3)C1)C2)CC(F)(F)F [Compound No. 1-114, 1-[2-(1-Adamantyl)ethyl]-3-[3-(4-pyridyl)propyl]-1-(2,2,2-trifluoroethyl)urea]",106.2 to 107.3 °C
12,"CN(C)CCN(CCC12CC3CC(CC(C3)C1)C2)C(=O)NCCCc1ccncc1 [Compound No. 1-15, 1-[2-(1-Adamantyl)ethyl]-1-[2-(dimethylamino)ethyl]-3-[3-(4-pyridyl)propyl]urea]",104 to 106.5 °C
13,CCCN(CCCC12CC3CC(CC(C3)C1)C2)C(=O)NCCCc1ccncc1.O=P(O)(O)O,148 to 149 °C
14,"CCCCCN(CCC12CC3CC(CC(C3)C1)C2)C(=O)NCCNc1ccncc1 [Compound No. 1-126, 1-[2-(1-Adamantyl)ethyl]-1-pentyl-3-[2-(4-pyridylamino)ethyl]urea]",133.9 to 134.5 °C
15,"CCCCCN(CCC12CC3CC(CC(C3)C1)C2)C(=O)NCC(Cc1ccccc1)Cc1ccncc1 (centres unmarked) [Compound No. 1-109, 1-[2-(1-Adamantyl)ethyl]-3-[2-benzyl-3-(4-pyridyl)propyl]-1-pentylurea]",111 to 116 °C
16,Cl.O=C1CCN(CCCc2ccncc2)C(=O)N1CCC12CC3CC(CC(C3)C1)C2,170 °C
17,"CCN(CCCC12CC3CC(CC(C3)C1)C2)C(=O)NCCCc1ccncc1 [Compound No. 1-130, 1-[3-(1-Adamantyl)propyl]-1-ethyl-3-[3-(4-pyridyl)propyl]urea]",97.5 to 98.2 °C
18,"CC(CNC(=O)N(CCC(F)(F)F)CCC12CC3CC(CC(C3)C1)C2)Cc1ccncc1 (centres unmarked) [Compound No. 1-117, 1-[2-(1-Adamantyl)ethyl]-3-[2-methyl-3-(4-pyridyl)propyl]-1-(3,3,3-trifluoropropyl)urea]",81.1 to 84.1 °C
19,"CCCCCN(CCC12CC3CC(CC(C3)C1)C2)C(=O)NCC(CC)Cc1ccncc1 (centres unmarked) [Compound No. 1-108, 1-[2-(1-Adamantyl)ethyl]-1-pentyl-3-[2-(4-pyridylmethyl)butyl]urea]",72 to 77 °C
20,"OCCN(CCc1ccccc1)C(=S)NCCCc1ccncc1 [Compound No. 7-2, 1-(2-Hydroxyethyl)-1-phenethyl-3-[3-(4-pyridyl)propyl]thiourea]",105.6 to 107.1 °C
21,"CC(C)=CCN(CCC12CC3CC(CC(C3)C1)C2)C(=O)NCCCc1ccncc1 [Compound No. 1-31, 1-[2-(1-Adamantyl)ethyl]-1-(3-methyl-2-butenyl)-3-[3-(4-pyridyl)propyl]urea]",93 to 96 °C
22,"O=C(NCCCc1ccncc1)N(CCC12CC3CC(CC(C3)C1)C2)CC1CC1 [Compound No. 1-22, 1-[2-(1-Adamantyl)ethyl]-1-cyclopropylmethyl-3-[3-(4-pyridyl)propyl]urea]",123 to 125 °C
